Assay results: PubChem BioAssay AID248 (DTP/NCI, 2004)
Where “and” joins values, the source holds several entries; their conditions need not be identical. Equal values may be shown once. Toxic doses and inconclusive results are not listed. No stated cut-off is given here; in the data, active means T/C of 150% or more; inactive means T/C below 125%.

System: L1210 leukemia ip in BDF1 mice, survival T/C
Assay: NCI In Vivo Anticancer Drug Screen. Data for tumor model L1210 Leukemia (intraperitoneal) in B6D2F1 (BDF1) mice
Conditions: endpoint: mean survival time, higher = longer survival
How it was run: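 Ratio derived from survival: compound-dosed mice over vehicle-dosed mice, all bearing a transplantable tumor.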

[1] = dose: 12.5 mg/kg/injection, schedule: Q04DX003 (ip), vehicle: Klucel (hydroxypropylcellulose) (HPC)
[2] = dose: 25.0 mg/kg/injection, schedule: Q04DX003 (ip), vehicle: Klucel (hydroxypropylcellulose) (HPC)
[3] = dose: 50.0 mg/kg/injection, schedule: Q04DX003 (ip), vehicle: Klucel (hydroxypropylcellulose) (HPC)
[4] = dose: 100.0 mg/kg/injection, schedule: Q04DX003 (ip), vehicle: Klucel (hydroxypropylcellulose) (HPC)
[5] = dose: 50.0 mg/kg/injection, schedule: Q01DX009 (ip), vehicle: Klucel (hydroxypropylcellulose) (HPC)
[6] = dose: 100.0 mg/kg/injection, schedule: Q01DX009 (ip), vehicle: Klucel (hydroxypropylcellulose) (HPC)
[7] = dose: 200.0 mg/kg/injection, schedule: Q01DX009 (ip), vehicle: Klucel (hydroxypropylcellulose) (HPC)
[8] = dose: 200.0 mg/kg/injection, schedule: Q04DX003 (ip), vehicle: Klucel (hydroxypropylcellulose) (HPC)
[9] = dose: 100.0 mg/kg/injection, schedule: Q04DX003 (ip), vehicle: saline
[10] = dose: 400.0 mg/kg/injection, schedule: Q04DX003 (ip), vehicle: saline
[11] = dose: 100.0 mg/kg/injection, schedule: Q01DX001 (ip), vehicle: Klucel (hydroxypropylcellulose) (HPC)
[12] = dose: 200.0 mg/kg/injection, schedule: Q01DX001 (ip), vehicle: Klucel (hydroxypropylcellulose) (HPC)
[13] = dose: 400.0 mg/kg/injection, schedule: Q01DX001 (ip), vehicle: Klucel (hydroxypropylcellulose) (HPC)
[14] = dose: 400.0 mg/kg/injection, schedule: Q04DX003 (ip), vehicle: Klucel (hydroxypropylcellulose) (HPC)
[15] = dose: 100.0 mg/kg/injection, schedule: Q01DX009 (ip), vehicle: saline with Tween-80
[16] = dose: 100.0 mg/kg/injection, schedule: Q04DX002 (ip), vehicle: saline with Tween-80
[17] = dose: 100.0 mg/kg/injection, schedule: Q04DX003 (ip), vehicle: saline with Tween-80
[18] = dose: 200.0 mg/kg/injection, schedule: Q01DX009 (ip), vehicle: saline with Tween-80
[19] = dose: 200.0 mg/kg/injection, schedule: Q04DX003 (ip), vehicle: saline with Tween-80
[20] = dose: 400.0 mg/kg/injection, schedule: Q01DX009 (ip), vehicle: saline with Tween-80
[21] = dose: 400.0 mg/kg/injection, schedule: Q04DX003 (ip), vehicle: saline with Tween-80
[22] = dose: 200.0 mg/kg/injection, schedule: Q04DX003 (ip), vehicle: saline
[23] = dose: 100.0 mg/kg/injection, schedule: Q01DX001 (ip), vehicle: saline
[24] = dose: 200.0 mg/kg/injection, schedule: Q01DX001 (ip), vehicle: saline
[25] = dose: 400.0 mg/kg/injection, schedule: Q01DX001 (ip), vehicle: saline

Measured: T/C

Nc1nc(N)c(-c2ccc(Cl)c(Cl)c2)c(CBr)n1
inactive: dose: 1.56 mg/kg/injection, schedule: Q01DX009 (ip), vehicle: saline with Tween-80 101 % of control | dose: 3.13 mg/kg/injection, schedule: Q01DX009 (ip), vehicle: saline with Tween-80 101 % of control and 92 % of control | dose: 6.25 mg/kg/injection, schedule: Q01DX009 (ip), vehicle: saline with Tween-80 102 % of control | dose: 12.5 mg/kg/injection, schedule: Q01DX009 (ip), vehicle: saline with Tween-80 99 % of control and 101 % of control | [1] 90 % of control | [2] 113 % of control | [3] 87 % of control | [4] 87 % of control

NC(=O)Nc1cccc(C(F)(F)F)c1
inactive: dose: 75.0 mg/kg/injection, schedule: Q01DX001 (ip), vehicle: carboxymethylcellulose (CMC) 98 % of control | dose: 150.0 mg/kg/injection, schedule: Q01DX001 (ip), vehicle: carboxymethylcellulose (CMC) 102 % of control | dose: 300.0 mg/kg/injection, schedule: Q01DX001 (ip), vehicle: carboxymethylcellulose (CMC) 103 % of control

COc1cccc(CC(=O)C(=O)O)c1
inactive: [5] 98 % of control | [6] 90 % of control | [4] 97 % of control | [7] 95 % of control | [8] 98 % of control

O=C1c2ccccc2-c2cc(Br)cc(Br)c21
inactive: dose: 100.0 mg/kg/injection, schedule: Q01DX001 (ip), vehicle: carboxymethylcellulose (CMC) 93 % of control | dose: 200.0 mg/kg/injection, schedule: Q01DX001 (ip), vehicle: carboxymethylcellulose (CMC) 98 % of control | dose: 400.0 mg/kg/injection, schedule: Q01DX001 (ip), vehicle: carboxymethylcellulose (CMC) 98 % of control

Oc1cncc2ccccc12
inactive: [9] 94 % of control | [10] 90 % of control

CC1SCC(=O)CS1
inactive: [11] 93 % of control | [4] 91 % of control | [12] 96 % of control | [8] 94 % of control | [13] 96 % of control | [14] 97 % of control

O=C1CC=Nc2ccc([N+](=O)[O-])cc21
inactive: [6] 101 % of control | [4] 98 % of control | [7] 97 % of control | [8] 109 % of control | dose: 400.0 mg/kg/injection, schedule: Q01DX009 (ip), vehicle: Klucel (hydroxypropylcellulose) (HPC) 101 % of control | [14] 108 % of control

Cc1ccc(C)c(NC(=O)OCc2ccco2)c1
inactive: dose: 100.0 mg/kg/injection, schedule: Q01DX001 (ip), vehicle: saline with Tween-80 97 % of control | [15] 107 % of control and 89 % of control | [16] 93 % of control and 100 % of control | [17] 105 % of control | dose: 200.0 mg/kg/injection, schedule: Q01DX001 (ip), vehicle: saline with Tween-80 95 % of control | [18] 100 % of control and 89 % of control | dose: 200.0 mg/kg/injection, schedule: Q04DX002 (ip), vehicle: saline with Tween-80 96 % of control and 98 % of control | [19] 93 % of control | dose: 400.0 mg/kg/injection, schedule: Q01DX001 (ip), vehicle: saline with Tween-80 95 % of control | [20] 100 % of control and 89 % of control | dose: 400.0 mg/kg/injection, schedule: Q04DX002 (ip), vehicle: saline with Tween-80 93 % of control and 102 % of control | [21] 93 % of control

CC1=NN(c2ccc(S(=O)(=O)O)cc2)C(=O)/C1=C/c1ccc(Cl)cc1
inactive: dose: 100.0 mg/kg/injection, schedule: Q01DX009 (ip), vehicle: saline sonified 105 % of control | dose: 200.0 mg/kg/injection, schedule: Q01DX009 (ip), vehicle: saline sonified 100 % of control | [22] 102 % of control | dose: 400.0 mg/kg/injection, schedule: Q01DX009 (ip), vehicle: saline sonified 104 % of control | [10] 98 % of control

CCCCCCCCCCCCCCCCCN
inactive: dose: 12.5 mg/kg/injection, schedule: Q01DX009 (ip), vehicle: Klucel (hydroxypropylcellulose) (HPC) 100 % of control | [1] 93 % of control | dose: 25.0 mg/kg/injection, schedule: Q01DX009 (ip), vehicle: Klucel (hydroxypropylcellulose) (HPC) 101 % of control | [2] 100 % of control | [3] 102 % of control

CC(C)(C)OC(=O)CCC(NC(=O)OCc1ccccc1)C(=O)NN (stereo unspecified)
inactive: [5] 100 % of control | dose: 75.0 mg/kg/injection, schedule: Q01DX001 (ip), vehicle: Klucel (hydroxypropylcellulose) (HPC) 88 % of control | [6] 110 % of control | [4] 99 % of control | dose: 150.0 mg/kg/injection, schedule: Q01DX001 (ip), vehicle: Klucel (hydroxypropylcellulose) (HPC) 108 % of control | [7] 100 % of control | [8] 106 % of control | dose: 300.0 mg/kg/injection, schedule: Q01DX001 (ip), vehicle: Klucel (hydroxypropylcellulose) (HPC) 92 % of control | [14] 105 % of control

CCC(=O)Nc1cccc(OC(=O)NC(C)C)c1
inactive: [15] 95 % of control | [18] 90 % of control

O=C1NC(=O)C(CSCc2ccccc2)(CSCc2ccccc2)N1
inactive: dose: 50.0 mg/kg/injection, schedule: Q01DX009 (ip), vehicle: saline with Tween-80 94 % of control | [15] 92 % of control and 102 % of control | [18] 94 % of control and 97 % of control | [20] 100 % of control

CCNCCCNCC
inactive: dose: 75.0 mg/kg/injection, schedule: Q01DX001 (ip), vehicle: saline 100 % of control | dose: 150.0 mg/kg/injection, schedule: Q01DX001 (ip), vehicle: saline 93 % of control

NS(=O)(=O)c1ccc(NC(=O)Nc2cccc(CNC(=O)COc3ccc(Cl)cc3C(=O)O)c2)cc1
inactive: [11] 98 % of control | [12] 91 % of control | [13] 98 % of control

CCOP(=S)(OCC)SCc1ccccc1
inactive: [17] 97 % of control | [19] 98 % of control | [21] 106 % of control

CC(=O)OC1OCC(COC(=O)c2ccc([N+](=O)[O-])cc2)C1OC(=O)c1ccc([N+](=O)[O-])cc1 (stereo unspecified)
inactive: [23] 92 % of control | [24] 92 % of control | [25] 95 % of control

O=C(O)CCc1ccsc1
inactive: [23] 94 % of control | [24] 100 % of control | [25] 102 % of control

c1ccc2cc(SSc3ccc4ccccc4c3)ccc2c1
inactive: [4] 95 % of control | [8] 89 % of control | [14] 86 % of control

CC1(C)COC(Cc2ccccc2)=N1
inactive: dose: 25.0 mg/kg/injection, schedule: Q01DX009 (ip), vehicle: saline 98 % of control | dose: 50.0 mg/kg/injection, schedule: Q01DX009 (ip), vehicle: saline 104 % of control | dose: 50.0 mg/kg/injection, schedule: Q04DX003 (ip), vehicle: saline 96 % of control | dose: 100.0 mg/kg/injection, schedule: Q01DX009 (ip), vehicle: saline 102 % of control | [9] 94 % of control | dose: 200.0 mg/kg/injection, schedule: Q01DX009 (ip), vehicle: saline 101 % of control | [22] 91 % of control

CC1CCCCC1O (stereo unspecified)
inactive: [15] 102 % of control | [18] 92 % of control

CCCCOc1c(Cl)c(Cl)c(OP(=O)(OCCCC)OCCCC)c(Cl)c1Cl
inactive: dose: 100.0 mg/kg/injection, schedule: Q04DX002 (ip), vehicle: other 103 % of control | dose: 200.0 mg/kg/injection, schedule: Q04DX002 (ip), vehicle: other 88 % of control | dose: 400.0 mg/kg/injection, schedule: Q04DX002 (ip), vehicle: other 103 % of control

CC(=NC(c1ccccc1)c1ccccc1)N(C)C
inactive: [16] 104 % of control

COc1ccc([N+](=O)[O-])cc1NC(=O)N(c1ccccc1)C(C)C
inactive: [5] 101 % of control | [6] 107 % of control | [7] 86 % of control

COc1cc2c(cc1C)OC(C)(CC(=O)O)C2 (stereo unspecified)
inactive: [11] 103 % of control | [12] 96 % of control | [13] 96 % of control
